Assay results reported in paper PMC8512562, “Semisynthetic Derivatives of Selected Amaryllidaceae Alkaloids as a New Class of Antimycobacterial Agents” (Molecules, 2021).
In brackets after ≈: the same amount, converted by molar mass. Read-outs that look alike come from different tables or passages of the source.

How the values were obtained:
[1] = system: Mycobacterium tuberculosis H37Ra; assay: Antimycobacterial screening (microdilution broth, resazurin) against M. tuberculosis H37Ra; assay type: cell-based; conditions: Mycobacterium tuberculosis
[2] = system: Mycobacterium smegmatis DSM 43465 (ATCC 607); assay: Antimycobacterial screening (microdilution broth, resazurin) against M. smegmatis; assay type: cell-based; conditions: Mycolicibacterium smegmatis, 48 h, read-out: MIC M. smegmatis
[3] = system: Mycobacterium aurum DSM 43999 (ATCC 23366); assay: Antimycobacterial screening (microdilution broth, resazurin) against M. aurum; assay type: cell-based; conditions: Mycolicibacterium aurum, 72 h, read-out: MIC M. aurum
[4] = system: M. tuberculosis H37Ra, M. aurum and M. smegmatis; assay: Antimycobacterial screening, MICs stated over all studied strains; assay type: cell-based, Mycobacterium; conditions: read-out: MICs against all studied strains
HepG2 cells = assay: cells; assay type: cell-based, Human; conditions: for IC50: Homo sapiens, HepG2, MTT, 24 h incubation
[5] = H37RA, read-out: MIC Mtb H37Ra (µM)
[6] = M. tuberculosis H37Ra, resazurin added after 120 h, read-out: MIC Mtb H37Ra
[7] = range over M. tuberculosis H37Ra, M. aurum, M. smegmatis

Row | SMILES | MIC [1, 5] [µM] | MIC [1, 6] [µg/mL] | MIC [2] [µg/mL] | MIC [3] [µg/mL] | MIC [4, 7] [µg/mL] | SI (selectivity index) (HepG2 cells) | IC50 (HepG2 cells) [µM] | MIC ([4]; range over the studied strains) [µM]
1 | CCCCc1ccc(C(=O)O[C@H]2C=C[C@@]34CCN(C)Cc5ccc(OC)c(c53)O[C@H]4C2)cc1 [1i, 6-O-(4-butylbenzoyl)galanthamine] | 3.5 | 1.56 | 7.81 (≈ 17.4 µM) | 1.98 (≈ 4.42 µM) | 1.56 to 7.81 | 4.20 | 14.7 ± 1.6 | 
2 | CCOc1cc(OCC)cc(C(=O)O[C@H]2C=C[C@@]34CCN(C)Cc5ccc(OC)c(c53)O[C@H]4C2)c1 [1p, 6-O-(3,5-diethoxybenzoyl)galanthamine] | 7.6 | 3.91 | 15.6 (≈ 32.6 µM) | 7.81 (≈ 16.3 µM) | 3.91 to 15.6 | 2.64 | 20.1 ± 2.1 | 7.6 to 30.2
3 | COc1ccc2c3c1O[C@H]1C[C@@H](OC(=O)c4cccc5ccccc45)C=C[C@@]31CCN(C)C2 [1q, 6-O-(1-naphthoyl)galanthamine] | 13.1 | 6.25 | 7.81 (≈ 17.7 µM) | 7.81 (≈ 17.7 µM) | 6.25 to 7.81 | 3.21 | 42.1 ± 4.1 | 
4 | COc1ccc2c3c1O[C@H]1C[C@@H](OC(=O)c4ccc5ccccc5c4)C=C[C@@]31CCN(C)C2 [1r, 6-O-(2-naphthoyl)galanthamine] | 4.1 | 1.98 | 7.81 (≈ 17.7 µM) | 3.91 (≈ 8.86 µM) | 1.98 to 7.81 | 5.17 | 21.2 ± 3.8 | 
5 | COC1CC2C(=CC1OC(=O)c1cccc3ccccc13)C1CN2Cc2cc3c(cc21)OCO3 (stereo not shown) [3f, 2-O-(1-naphthoyl)-3-O-methylpancracine] | 7.9 | 3.91 | 3.91 (≈ 8.58 µM) | 3.91 (≈ 8.58 µM) | 3.91 | 3.51 | 27.7 ± 4.7 | 
6 | O=C(O[C@@H]1C=C[C@]23CCN(Cc4cc5c(cc42)OCO5)[C@H]3C1)c1cccc2ccccc12 [4a, 3-O-(1-naphthoyl)vittatine] | 8.5 | 3.91 | 7.81 (≈ 18.4 µM) | 3.91 (≈ 9.19 µM) | 3.91 to 7.81 | 2.79 | 23.7 ± 2.2 | 
7 | O=C(O[C@@H]1C=C[C@]23CCN(Cc4cc5c(cc42)OCO5)[C@H]3C1)c1ccc2ccccc2c1 [4b, 3-O-(2-naphthoyl)vittatine] | 8.5 | 3.91 | 7.81 (≈ 18.4 µM) | 3.91 (≈ 9.19 µM) | 3.91 to 7.81 | 2.17 | 18.5 ± 2 | 
8 | COc1cc2c(cc1OC)[C@@]13C=C[C@@H](OC(=O)c4cc(C)cc(C)c4)C[C@@H]1N(CC3)C2 [5a, 3-O-(3,5-dimethylbenzoyl)maritidine] | 8.6 | 3.91 | 15.6 (≈ 37.2 µM) | 15.6 (≈ 37.2 µM) | 3.91 to 15.6 | 2.17 | 18.7 ± 2.7 | 
9 | COc1cc2c(cc1OC)[C@@]13C=C[C@@H](OC(=O)c4cccc5ccccc45)C[C@@H]1N(CC3)C2 [5b, 3-O-(1-naphthoyl)maritidine] | 16.3 | 7.81 | 15.6 (≈ 35.4 µM) | 7.81 (≈ 17.7 µM) | 3.91 to 15.6 | 1.03 | 16.8 ± 7.1 | 
